Measurements from US10604555B2, “GIP derivatives and uses thereof” (priority 2018, dated 2020).

What was measured:
Format in all cases: cell-based
Settings in all cases: 0.2% HSA
human GIP receptor = molecular target: T1, human GIP receptor (Homo sapiens, UniProt P48546); assay: In vitro potency (CRE luciferase; whole cells), BHK CRE luc2P hGIPR
T1 construct: expressed in transfected cells; host or cells: BHK (parent line BHKTS13), BHK CRE luc2P hGIPR clone #5
T1 sequence (P48546 22-466): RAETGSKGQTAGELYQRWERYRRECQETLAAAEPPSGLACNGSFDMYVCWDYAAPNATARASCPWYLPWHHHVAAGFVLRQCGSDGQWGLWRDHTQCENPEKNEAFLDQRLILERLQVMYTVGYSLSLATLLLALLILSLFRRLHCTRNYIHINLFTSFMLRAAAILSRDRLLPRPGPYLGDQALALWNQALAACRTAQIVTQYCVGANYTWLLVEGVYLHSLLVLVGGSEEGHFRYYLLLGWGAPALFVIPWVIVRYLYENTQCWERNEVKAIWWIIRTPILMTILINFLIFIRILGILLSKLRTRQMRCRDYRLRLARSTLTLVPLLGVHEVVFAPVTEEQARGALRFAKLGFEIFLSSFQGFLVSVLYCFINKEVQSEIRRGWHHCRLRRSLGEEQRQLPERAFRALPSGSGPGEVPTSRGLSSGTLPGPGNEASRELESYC
Summary of the method: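 BHK clones carrying a CRE luciferase element, each transfected with one human receptor, were seeded at 5000 cells/well overnight. Compounds were diluted in buffer with 1% ovalbumin and 0.1% Pluronic F-68, with or without human serum albumin. Luminescence was read after steadylite plus; non-linear log(agonist)-response fit, averaged over at least two replicates.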

human GLP-1 receptor = molecular target: T2, human GLP-1 receptor (Homo sapiens, UniProt P43220); assay: In vitro potency (CRE luciferase; whole cells), BHK CRE luc2P hGLP-1R
T2 construct: expressed in transfected cells; host or cells: BHK (parent line BHKTS13), BHK CRE luc2P hGLP-1R clone #6
Protocol: (§1) In Vitro Potency (CRE Luciferase; Whole Cells)
(§2) The in vitro potency is the measure of human GIP, GLP-1 or glucagon receptor activation, respectively, in a whole cell assay.
(§3) In vitro potency was determined by measuring the response of the human GIP, GLP-1 or glucagon receptor in a reporter gene assay in individual cell lines. […] When the respective receptor is activated it results in the production of cAMP, which in turn results in the luciferase protein being expressed. When assay incubation is completed the luciferase substrate (luciferin) is added and the enzyme converts luciferin to oxyluciferin to produce bioluminescence. The luminescence is measured as the readout for the assay.
(§4) The cells were derived from a clone containing the CRE luciferase element and were established by further transfection with the respective receptor to obtain the current clone.
(§5) The cells were cultured at 5% CO2 in Cell Culture Medium. They were aliquoted and stored in liquid nitrogen. The cells were kept in passage and were seeded out the day before each assay.
(§6) The Assay Buffer consisted of 1% ovalbumin and 0.1% Pluronic F-68 in Assay Medium with the addition of human serum albumin at twice the indicated concentrations.
(§7) 1) Cells were plated at 5000 cells/well and incubated overnight.
(§8) 2) Cells were washed three times in PBS.
(§9) 3) Assay Medium (50 μl aliquot) with or without serum albumin was added to each well in the assay plate.
(§10) 4) Stocks of the test compounds and reference compounds were diluted to a concentration of 0.2 μM in Assay Buffer. […] 8) The cells were washed three times with PBS plus some liquid in each well. 9) A 100 μl aliquot of steadylite plus reagent was added to each well of the assay plate (reagent was light sensitive). 10) Each assay plate was covered with aluminum foil to protect it from light and shaken for 30 min at room temperature. 11) Each assay plate was read in a microtiter plate reader. Calculations and Results
The data from the microtiter plate reader was transferred to GraphPad Prism software. The software performs a non-linear regression (log(agonist) vs response).
A minimum of two replicates was measured for each sample. The reported values are averages of the replicates.

human glucagon receptor = molecular target: T3, human glucagon receptor (Homo sapiens, UniProt P47871); assay: In vitro potency (CRE luciferase; whole cells), BHK CRE luc2P hGCGR
T3 construct: expressed in transfected cells; host or cells: BHK (parent line BHKTS13), BHK CRE luc2P hGCGR clone #18
Protocol: as §1, §2, §3, §4, §5, §6, §7, §8, §9, §10
The data from the microtiter plate reader was transferred to GraphPad Prism software. […]
A minimum of two replicates was measured for each sample. […]

T2 sequence (P43220 24-463): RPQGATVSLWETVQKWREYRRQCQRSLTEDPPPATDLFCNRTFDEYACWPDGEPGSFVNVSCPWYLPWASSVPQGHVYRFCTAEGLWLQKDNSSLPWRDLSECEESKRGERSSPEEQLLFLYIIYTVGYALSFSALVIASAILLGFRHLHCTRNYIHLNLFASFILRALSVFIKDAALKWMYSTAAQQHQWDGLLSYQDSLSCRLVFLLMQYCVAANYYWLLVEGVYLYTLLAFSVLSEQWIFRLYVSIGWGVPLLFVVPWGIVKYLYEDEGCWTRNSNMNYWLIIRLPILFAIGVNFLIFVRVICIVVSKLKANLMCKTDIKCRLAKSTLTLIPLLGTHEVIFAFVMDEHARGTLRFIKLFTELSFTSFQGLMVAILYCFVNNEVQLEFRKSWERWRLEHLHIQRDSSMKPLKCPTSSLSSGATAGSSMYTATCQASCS
T3 sequence (P47871 26-477): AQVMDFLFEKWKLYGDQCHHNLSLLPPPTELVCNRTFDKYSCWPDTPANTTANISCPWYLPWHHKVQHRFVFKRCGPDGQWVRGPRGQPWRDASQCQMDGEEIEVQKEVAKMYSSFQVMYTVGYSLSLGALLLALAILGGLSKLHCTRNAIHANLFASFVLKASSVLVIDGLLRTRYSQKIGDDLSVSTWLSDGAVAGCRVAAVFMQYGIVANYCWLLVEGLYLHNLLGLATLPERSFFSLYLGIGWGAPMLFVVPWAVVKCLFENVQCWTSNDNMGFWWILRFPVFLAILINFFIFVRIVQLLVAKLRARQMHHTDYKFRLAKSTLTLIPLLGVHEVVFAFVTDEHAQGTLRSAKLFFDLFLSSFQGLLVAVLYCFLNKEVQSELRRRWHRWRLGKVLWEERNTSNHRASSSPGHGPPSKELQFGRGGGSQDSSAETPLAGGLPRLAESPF

SMILES | EC50 (human GIP receptor) | EC50 (human GLP-1 receptor) | EC50 (human glucagon receptor)
CCCC[C@H](NC(=O)[C@H](C)NC(=O)[C@@H](NC(=O)[C@H](CO)NC(=O)[C@H](Cc1ccc(O)cc1)NC(=O)[C@H](CC(=O)O)NC(=O)[C@H](CO)NC(=O)[C@@H](NC(=O)[C@H](Cc1ccccc1)NC(=O)[C@@H](NC(=O)CNC(=O)[C@H](CCC(=O)O)NC(=O)C(C)(C)NC(=O)[C@@H](N)Cc1ccc(O)cc1)[C@@H](C)O)[C@@H](C)CC)[C@@H](C)CC)C(=O)N[C@@H](CC(=O)O)C(=O)N[C@@H](CCCCN)C(=O)N[C@H](C(=O)N[C@@H](CCCNC(=N)N)C(=O)N[C@@H](CCC(N)=O)C(=O)N[C@@H](CCC(N)=O)C(=O)N[C@@H](CC(=O)O)C(=O)N[C@@H](Cc1ccccc1)C(=O)N[C@H](C(=O)N[C@@H](CCCCNC(=O)CC[C@H](NC(=O)CC[C@H](NC(=O)CC[C@H](NC(=O)CCCCCCCCCCCCCCCCC(=O)O)C(=O)O)C(=O)O)C(=O)O)C(=O)N[C@@H](Cc1c[nH]c2ccccc12)C(=O)N[C@@H](CC(C)C)C(=O)N[C@@H](CC(C)C)C(=O)N[C@@H](C)C(=O)N[C@@H](CCC(N)=O)C(=O)N[C@@H](CCCCN)C(=O)NCC(=O)N[C@@H](CCCCN)C(=O)N[C@@H](CCC(=O)O)C(=O)N[C@@H](CCC(=O)O)C(=O)N[C@@H](CC(=O)O)C(=O)N[C@@H](Cc1c[nH]c2ccccc12)C(=O)N[C@@H](CCCCN)C(=O)N[C@@H](Cc1c[nH]cn1)C(=O)N[C@@H](CC(N)=O)C(=O)N[C@H](C(=O)N[C@H](C(=O)N[C@@H](CCC(N)=O)C(=O)O)[C@@H](C)O)[C@@H](C)CC)C(C)C)[C@@H](C)CC [Compound 40, N{Epsilon-24}-[(4S)-4-carboxy-4-[[(4S)-4-carboxy-4-[[(4S)-4-carboxy-4-(17-carboxyheptadecanoylamino)butanoyl]amino]butanoyl]amino]butanoyl]-[Aib2,Nle14,Arg18,Lys24,Glu33,Glu34]-hGIP] | 0.00447 nM | > 100 nM | > 100 nM
CCCC[C@H](NC(=O)[C@H](C)NC(=O)[C@@H](NC(=O)[C@H](CO)NC(=O)[C@H](Cc1ccc(O)cc1)NC(=O)[C@H](CC(=O)O)NC(=O)[C@H](CO)NC(=O)[C@@H](NC(=O)[C@H](Cc1ccccc1)NC(=O)[C@@H](NC(=O)CNC(=O)[C@H](CCC(=O)O)NC(=O)C(C)(C)NC(=O)[C@@H](N)Cc1ccc(O)cc1)[C@@H](C)O)[C@@H](C)CC)[C@@H](C)CC)C(=O)N[C@@H](CC(=O)O)C(=O)N[C@@H](CCCCN)C(=O)N[C@H](C(=O)N[C@@H](CCCNC(=N)N)C(=O)N[C@@H](CCC(N)=O)C(=O)N[C@@H](CCC(N)=O)C(=O)N[C@@H](CC(=O)O)C(=O)N[C@@H](Cc1ccccc1)C(=O)N[C@H](C(=O)N[C@@H](CCCCNC(=O)COCCOCCNC(=O)COCCOCCNC(=O)CC[C@H](NC(=O)CCCCCCCCCCCCCCCCC(=O)O)C(=O)O)C(=O)N[C@@H](Cc1c[nH]c2ccccc12)C(=O)N[C@@H](CC(C)C)C(=O)N[C@@H](CC(C)C)C(=O)N[C@@H](C)C(=O)N[C@@H](CCC(N)=O)C(=O)N[C@@H](CCCCN)C(=O)NCC(=O)N[C@@H](CCCCN)C(=O)N[C@@H](CCC(=O)O)C(=O)N[C@@H](CCC(=O)O)C(=O)N[C@@H](CC(=O)O)C(=O)N[C@@H](Cc1c[nH]c2ccccc12)C(=O)N[C@@H](CCCCN)C(=O)N[C@@H](Cc1c[nH]cn1)C(=O)N[C@@H](CC(N)=O)C(=O)N[C@H](C(=O)N[C@H](C(=O)N[C@@H](CCC(N)=O)C(=O)O)[C@@H](C)O)[C@@H](C)CC)C(C)C)[C@@H](C)CC [Compound 37, N{Epsilon-24}-[2-[2-[2-[[2-[2-[2-[[(4S)-4-carboxy-4-(17-carboxyheptadecanoylamino)butanoyl]amino]ethoxy]ethoxy]acetyl]amino]ethoxy]ethoxy]acetyl]-[Aib2,Nle14,Arg18,Lys24,Glu33,Glu34]-hGIP] | 0.00412 nM | > 100 nM | > 100 nM
